Source: ChEMBL document CHEMBL4011585, “Identification of dibenzyl imidazolidine and triazole acetamide derivatives through virtual screening targeting amyloid beta aggregation and neurotoxicity in PC12 cells” (Eur J Med Chem, 2017)
Activity calls are given as the source filed them. The calls are words filed in the database; no cut-off is given here.

Experiments:
[1] = molecular target: Amyloid-beta precursor protein (Homo sapiens) (UniProt P05067); assay: Inhibition of recombinant human amyloid beta (1 to 42) aggregation at 100 uM measured every 10 mins for 48 hrs by thioflavin T fluorescence assay
Chain of Amyloid-beta precursor protein (Homo sapiens) (P05067 whole entry): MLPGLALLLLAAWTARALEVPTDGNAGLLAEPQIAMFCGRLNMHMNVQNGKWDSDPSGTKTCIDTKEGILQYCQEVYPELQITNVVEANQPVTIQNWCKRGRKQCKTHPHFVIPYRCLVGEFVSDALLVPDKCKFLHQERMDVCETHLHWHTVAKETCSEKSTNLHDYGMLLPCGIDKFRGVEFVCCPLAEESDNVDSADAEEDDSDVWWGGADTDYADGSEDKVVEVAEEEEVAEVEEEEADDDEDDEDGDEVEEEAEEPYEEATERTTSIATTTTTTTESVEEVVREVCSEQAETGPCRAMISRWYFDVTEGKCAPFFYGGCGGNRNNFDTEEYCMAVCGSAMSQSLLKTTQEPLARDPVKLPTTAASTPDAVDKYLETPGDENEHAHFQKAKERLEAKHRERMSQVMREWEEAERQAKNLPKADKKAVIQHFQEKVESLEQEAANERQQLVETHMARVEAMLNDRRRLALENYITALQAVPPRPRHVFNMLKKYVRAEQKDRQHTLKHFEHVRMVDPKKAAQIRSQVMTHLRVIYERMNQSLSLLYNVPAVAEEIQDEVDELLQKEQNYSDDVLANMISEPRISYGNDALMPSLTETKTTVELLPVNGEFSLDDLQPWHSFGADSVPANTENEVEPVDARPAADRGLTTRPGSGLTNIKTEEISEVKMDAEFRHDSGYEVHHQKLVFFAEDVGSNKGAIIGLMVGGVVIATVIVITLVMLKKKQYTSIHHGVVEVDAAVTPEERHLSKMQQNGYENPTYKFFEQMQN

[2] = molecular target: Amyloid-beta precursor protein (Homo sapiens) (UniProt P05067); assay: Induction of morphological changes in recombinant human amyloid beta (1 to 42) assessed as less dense fibril at 100 uM measured after 48 hrs by transmission electron microscopic method
PC-12 [3] = assay: Cytotoxicity against rat PC12 cells assessed as reduction in cell viability at 100 uM after 48 hrs by MTT assay relative to control; format: cell-based; conditions: pc-12, 48 h
PC-12 [4] = assay: Cytotoxicity against rat PC12 cells assessed as reduction in cell viability at 10 uM after 48 hrs by MTT assay relative to control; format: cell-based; conditions: pc-12, 48 h
PC-12 [5] = assay: Cytotoxicity against rat PC12 cells assessed as reduction in cell viability after 48 hrs by MTT assay; format: cell-based; conditions: pc-12, 48 h
[6] = molecular target: Amyloid-beta precursor protein (Homo sapiens) (UniProt P05067); assay: Induction of morphological changes in recombinant human amyloid beta (1 to 42) fibrils assessed as thinner fibril at 100 uM measured after 48 hrs by transmission electron microscopic method
[7] = molecular target: Amyloid-beta precursor protein (Homo sapiens) (UniProt P05067); assay: Induction of morphological changes in recombinant human amyloid beta (1 to 42) fibrils assessed as shorter fibril at 100 uM measured after 48 hrs by transmission electron microscopic method
[8] = molecular target: Amyloid-beta precursor protein (Homo sapiens) (UniProt P05067); assay: Induction of morphological changes in recombinant human amyloid beta (1 to 42) assessed as loosely attached fibrils at 100 uM measured after 48 hrs by transmission electron microscopic method
[9] = molecular target: Amyloid-beta precursor protein (Homo sapiens) (UniProt P05067); assay: Induction of morphological changes in recombinant human amyloid beta (1 to 42) assessed as smoother fibrils at 100 uM measured after 48 hrs by transmission electron microscopic method
PC-12 [10] = assay: Cytotoxicity against rat PC12 cells assessed as reduction in cell viability up to 100 uM after 48 hrs by MTT assay; format: cell-based; conditions: pc-12, 48 h
PC-12 [11] = assay: Neuroprotective activity against amyloid beta (1 to 42)-induced cell death in rat PC12 cells assessed as cell viability at 100 uM measured after 48 hrs by MTS assay relative to control; format: functional
[12] = molecular target: Amyloid-beta precursor protein (Homo sapiens) (UniProt P05067); assay: Induction of morphological changes in recombinant human amyloid beta (1 to 42) assessed as appearance of uneven fibrils at 100 uM measured after 48 hrs by transmission electron microscopic method
[13] = molecular target: Amyloid-beta precursor protein (Homo sapiens) (UniProt P05067); assay: Induction of morphological changes in recombinant human amyloid beta (1 to 42) assessed as appearance of small mesh-like aggregates at 100 uM measured after 48 hrs by transmission electron microscopic method
[14] = molecular target: Amyloid-beta precursor protein (Homo sapiens) (UniProt P05067); assay: Induction of morphological changes in recombinant human amyloid beta (1 to 42) assessed as appearance of punctate at 100 uM measured after 48 hrs by transmission electron microscopic method

inhibition [1] | Activity [2] | Activity [6] | Activity [7] | Activity [8] | Activity [9] | Activity [12] | Activity [13] | Activity [14] | SMILES | Activity (PC-12 [3]) [%] | Activity (PC-12 [4]) [%] | Activity (PC-12 [5]) | Activity (PC-12 [10]) | Activity (PC-12 [11]) | viability at 100 µM (PC-12 [11]; PC-12, 48 h, read-out: Activity) [%]
inactive | Active | Active | Active | Active | Active | – | – | – | c1ccc(COc2cccc(C3N(Cc4ccccc4)CCN3Cc3ccccc3)c2)cc1 | – | – | – | Non-Toxic | Active | –
Active | Active | Active | – | – | – | Active | Active | Active | Cn1c(SCC(=O)Nc2ccccc2)nnc1-c1ccc(N)cc1 | 20 to 25 | – | – | – | – | 73 to 78
Active | Active | Active | Active | Active | – | Active | – | – | COc1cc(C2N(Cc3ccccc3)CCN2Cc2ccccc2)ccc1OCc1ccccc1 | – | – | – | Non-Toxic | Active | –

More lines, now with the values behind:

SMILES | inhibition [1] | Activity [2] | Activity [6] | Activity [7] | Activity [8] | Activity [9] | Activity [12] | Activity [13] | Activity [14] | Activity (PC-12 [3]) [%] | Activity (PC-12 [4]) [%] | Activity (PC-12 [5]) | Activity (PC-12 [10]) | Activity (PC-12 [11]) | viability at 100 µM (PC-12 [11]; PC-12, 48 h, read-out: Activity) [%]
Cc1cccc(CNC(=O)[C@@H](C)C2CCN(C(=O)c3ccc4oc(-c5ccccc5)nc4c3)CC2)c1 | inactive | inactive | – | – | – | – | – | – | – | 87 | 35 | Dose-dependent effect | – | – | –
Cc1ccc(NC(=O)CSc2nnc(-c3ccc(N)cc3)n2C)cc1 | Active | Active | Active | – | – | – | Active | Active | Active | 60 | – | – | – | – | –
